Assay results reported in article PMC8395308 (International Journal of Molecular Sciences, 2021).
Where “and” joins values, the source holds several entries; their conditions need not be identical. Equal values may be shown once. Entries after “also recorded” stand apart in the source; their conditions may differ. Where a name gives a salt, the structure may show the parent alone.

Each compound was assayed against receptor binding domain (HC fragment) of BoNT/A binding to the fourth luminal domain of SV2C (Clostridium botulinum, UniProt P0DPI0) (assay: biochemical). Conditions: not given.
Chain of receptor binding domain (HC fragment) of BoNT/A binding to the fourth luminal domain of SV2C (P0DPI0 872-1296 limits assumed): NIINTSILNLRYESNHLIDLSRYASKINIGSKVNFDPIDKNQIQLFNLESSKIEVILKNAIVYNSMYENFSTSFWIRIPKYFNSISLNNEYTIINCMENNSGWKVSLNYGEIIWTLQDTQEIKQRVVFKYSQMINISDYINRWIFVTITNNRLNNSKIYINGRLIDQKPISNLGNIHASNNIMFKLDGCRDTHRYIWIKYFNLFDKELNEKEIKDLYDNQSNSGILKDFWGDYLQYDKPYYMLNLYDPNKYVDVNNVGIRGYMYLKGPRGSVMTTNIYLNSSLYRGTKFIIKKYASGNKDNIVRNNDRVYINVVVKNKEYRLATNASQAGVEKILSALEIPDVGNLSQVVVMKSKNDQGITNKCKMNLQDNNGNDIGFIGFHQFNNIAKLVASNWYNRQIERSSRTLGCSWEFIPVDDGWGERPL
Design: species or system Mus musculus
For `C[C@@](Cc1ccc(O)c(O)c1)(NN)C(=O)O` [carbidopa], the “Inhibition of the interaction between HC/A fragment and SV2C” value was “failed to inhibit”. `CO/N=C(\C(=O)N[C@@H]1C(=O)N2C(C(=O)O)=C(COC(C)=O)CS[C@H]12)c1csc(N)n1` [Cefotaxime sodium] was tested, and the “Maximal Inhibition (%)” value was 91%.

Same assay, conditions: IC50 (µM), TSP-RSP interaction inhibition
In the case of `NCCOc1cc(C(=O)Nc2cc(OCCN)c3ccccc3n2)nc(C(=O)Nc2cc(OCCN)c3ccccc3n2)c1` [Pyridostatin trifluoroacetate salt], the IC50 is reported as 4 µM. Compound `O=C(O)C1=CC(=C(c2ccc(O)c(C(=O)O)c2)c2ccc(O)c(C(=O)O)c2)C=CC1=O` [ATA, Aurintricarboxylic acid] has an IC50 of 2 µM. `Nc1nc2[nH]c(=O)cnc2c(=O)[nH]1` [Isoxanthopterin] was tested, and the IC50 was 34 µM. `NC(CO)C(=O)NNCc1ccc(O)c(O)c1O` (stereo not drawn) [Benserazide, Benserazide hydrochloride] showed an IC50 of 18 µM. For `C=CC1=C(C)c2cc3[nH]c(cc4nc(cc5[nH]c(cc1n2)c(C)c5CCC(=O)O)C(CCC(=O)O)=C4C)c(C)c3C=C` [PPIX, Protoporphyrin IX disodium], the IC50 was 84 µM. Compound `CO/N=C(\C(=O)N[C@@H]1C(=O)N2C(C(=O)O)=C(COC(C)=O)CS[C@H]12)c1csc(N)n1` [Cefotaxime sodium] has an IC50 of 3 µM. In the case of `CC(=O)OCC1=C(C(=O)O)N2C(=O)[C@@H](NC(=O)CCC[C@@H](N)C(=O)O)[C@H]2SC1` [Cephalosporin C zinc salt], the IC50 is reported as 27 µM. `NC(Cc1cc(O)c(O)cc1O)C(=O)O` (racemic) [6-OHD, 6-Hydroxy-DL-DOPA] gave an IC50 of 1 µM.

Same assay, conditions: read-out: Maximal Inhibition (%)
`NCCOc1cc(C(=O)Nc2cc(OCCN)c3ccccc3n2)nc(C(=O)Nc2cc(OCCN)c3ccccc3n2)c1` [Pyridostatin trifluoroacetate salt] gave an inhibition at 100 µM of roughly 80%. `O=C(O)C1=CC(=C(c2ccc(O)c(C(=O)O)c2)c2ccc(O)c(C(=O)O)c2)C=CC1=O` [ATA, Aurintricarboxylic acid] gave an inhibition at 100 µM of 100%. For `Nc1nc2[nH]c(=O)cnc2c(=O)[nH]1` [Isoxanthopterin], the inhibition at 100 µM was 68%. Compound `NC(CO)C(=O)NNCc1ccc(O)c(O)c1O` (stereo not drawn) [Benserazide, Benserazide hydrochloride] has an inhibition at 100 µM of 95%. For `C=CC1=C(C)c2cc3[nH]c(cc4nc(cc5[nH]c(cc1n2)c(C)c5CCC(=O)O)C(CCC(=O)O)=C4C)c(C)c3C=C` [PPIX, Protoporphyrin IX disodium], the inhibition at 100 µM was roughly 80%. For `CO/N=C(\C(=O)N[C@@H]1C(=O)N2C(C(=O)O)=C(COC(C)=O)CS[C@H]12)c1csc(N)n1` [Cefotaxime sodium], the inhibition at 100 µM was roughly 90%. Work on `CC(=O)OCC1=C(C(=O)O)N2C(=O)[C@@H](NC(=O)CCC[C@@H](N)C(=O)O)[C@H]2SC1` [Cephalosporin C zinc salt] yielded an inhibition at 100 µM of roughly 90%. With `NC(Cc1cc(O)c(O)cc1O)C(=O)O` (racemic) [6-OHD, 6-Hydroxy-DL-DOPA] the inhibition at 100 µM was 98%.

These compounds were tested on BoNT/E (assay: not given). Conditions: mouse, in vivo.
Design: species or system CD-1 mice
With `NC(CO)C(=O)NNCc1ccc(O)c(O)c1O` (stereo not drawn) [Benserazide, Benserazide hydrochloride] the “median TTD / median survival time of treated mice” value (“median TTD / median survival time” for short) was 10.7 h and the “median survival time (hr) treated” value was 10.7 h. With `C=CC1=C(C)c2cc3[nH]c(cc4nc(cc5[nH]c(cc1n2)c(C)c5CCC(=O)O)C(CCC(=O)O)=C4C)c(C)c3C=C` [PPIX, Protoporphyrin IX disodium] the “median TTD / median survival time” value was 10.7 h and the “median survival time (hr) treated” value was 10.7 h. With `NC(Cc1cc(O)c(O)cc1O)C(=O)O` (racemic) [6-OHD, 6-Hydroxy-DL-DOPA] the “median TTD / median survival time” value was 9.8 h and the “median survival time (hr) treated” value was 9.8 h.

Same assay, conditions: mouse, in vivo, ip
With `O=C(O)C1=CC(=C(c2ccc(O)c(C(=O)O)c2)c2ccc(O)c(C(=O)O)c2)C=CC1=O` [ATA, Aurintricarboxylic acid] the “Survival of treated mice” value was 100% and the “Therapeutic effect versus solvent (log-rank test)” value was “fully protective; also recorded: completely protected”.

Each compound was assayed against BoNT/A (Clostridium botulinum, UniProt P0DPI0) (assay: not given). Conditions: mouse, in vivo.
Chain of BoNT/A (P0DPI0 2-448 limits assumed): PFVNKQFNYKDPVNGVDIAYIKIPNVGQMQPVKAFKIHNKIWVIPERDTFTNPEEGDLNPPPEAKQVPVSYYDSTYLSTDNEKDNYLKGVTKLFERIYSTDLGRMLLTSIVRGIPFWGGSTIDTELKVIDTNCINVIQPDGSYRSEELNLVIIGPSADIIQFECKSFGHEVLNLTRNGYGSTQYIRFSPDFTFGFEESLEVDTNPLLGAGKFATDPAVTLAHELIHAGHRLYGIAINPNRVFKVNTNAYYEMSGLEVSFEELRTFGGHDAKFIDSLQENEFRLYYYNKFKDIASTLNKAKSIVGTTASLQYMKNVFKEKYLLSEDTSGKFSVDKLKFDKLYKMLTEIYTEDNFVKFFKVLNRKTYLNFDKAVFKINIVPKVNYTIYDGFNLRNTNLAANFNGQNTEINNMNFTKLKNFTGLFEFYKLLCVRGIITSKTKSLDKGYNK
Chain of BoNT/A (P0DPI0 449-1296 limits assumed): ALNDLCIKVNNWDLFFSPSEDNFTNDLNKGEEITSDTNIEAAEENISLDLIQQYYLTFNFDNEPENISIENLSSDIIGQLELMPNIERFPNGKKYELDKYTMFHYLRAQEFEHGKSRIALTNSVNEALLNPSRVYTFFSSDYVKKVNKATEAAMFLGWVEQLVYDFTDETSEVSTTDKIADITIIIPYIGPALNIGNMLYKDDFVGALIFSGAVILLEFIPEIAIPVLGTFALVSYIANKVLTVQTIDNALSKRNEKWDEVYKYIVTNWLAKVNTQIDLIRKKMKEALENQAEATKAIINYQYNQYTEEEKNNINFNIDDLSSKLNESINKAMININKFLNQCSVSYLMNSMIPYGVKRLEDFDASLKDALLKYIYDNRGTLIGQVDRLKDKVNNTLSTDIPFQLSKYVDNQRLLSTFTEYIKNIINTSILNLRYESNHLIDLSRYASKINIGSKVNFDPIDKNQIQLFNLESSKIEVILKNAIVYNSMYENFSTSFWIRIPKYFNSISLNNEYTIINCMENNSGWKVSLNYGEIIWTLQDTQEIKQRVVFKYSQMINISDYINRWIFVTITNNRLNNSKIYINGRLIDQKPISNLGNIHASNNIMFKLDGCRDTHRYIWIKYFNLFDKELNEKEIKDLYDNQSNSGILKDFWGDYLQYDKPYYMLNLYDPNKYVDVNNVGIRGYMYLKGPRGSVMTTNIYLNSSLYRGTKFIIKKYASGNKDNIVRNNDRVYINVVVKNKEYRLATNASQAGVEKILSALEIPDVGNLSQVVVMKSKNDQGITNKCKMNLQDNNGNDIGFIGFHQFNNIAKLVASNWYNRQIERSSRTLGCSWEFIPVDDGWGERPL
Design: species or system CD-1 mice
`NCCOc1cc(C(=O)Nc2cc(OCCN)c3ccccc3n2)nc(C(=O)Nc2cc(OCCN)c3ccccc3n2)c1` [Pyridostatin trifluoroacetate salt] was tested, and the “median survival time (hr) treated” value was 22.17 h. In the case of `O=C(O)C1=CC(=C(c2ccc(O)c(C(=O)O)c2)c2ccc(O)c(C(=O)O)c2)C=CC1=O` [ATA, Aurintricarboxylic acid], the “survival time of the nonsurviving treated animals” value is reported as 96 h. `Nc1nc2[nH]c(=O)cnc2c(=O)[nH]1` [Isoxanthopterin] was tested, and the “median survival time (hr) treated” value was 26.67 h. `NC(CO)C(=O)NNCc1ccc(O)c(O)c1O` (stereo not drawn) [Benserazide, Benserazide hydrochloride] was tested, and the “median survival time (hr) treated” value was 29.8 h and the “median survival time / TTD in the treated group” value was 29.8 h. With `C=CC1=C(C)c2cc3[nH]c(cc4nc(cc5[nH]c(cc1n2)c(C)c5CCC(=O)O)C(CCC(=O)O)=C4C)c(C)c3C=C` [PPIX, Protoporphyrin IX disodium] the “median survival time (hr) treated” value was 26.0 h and the “median survival time / TTD in the treated group” value was 26.0 h. For `CO/N=C(\C(=O)N[C@@H]1C(=O)N2C(C(=O)O)=C(COC(C)=O)CS[C@H]12)c1csc(N)n1` [Cefotaxime sodium], the “median survival time (hr) treated” value was 21.0 h. `NC(Cc1cc(O)c(O)cc1O)C(=O)O` (racemic) [6-OHD, 6-Hydroxy-DL-DOPA] was tested, and the “median survival time (hr) treated” value was 28.7 h and the “survival time of the nonsurviving treated animals” value was 28.7 h.

Same assay, conditions: mouse, in vivo, ip
With `NCCOc1cc(C(=O)Nc2cc(OCCN)c3ccccc3n2)nc(C(=O)Nc2cc(OCCN)c3ccccc3n2)c1` [Pyridostatin trifluoroacetate salt] the “Therapeutic effect versus solvent (log-rank test)” value was “did not exert beneficial therapeutic effects”. `O=C(O)C1=CC(=C(c2ccc(O)c(C(=O)O)c2)c2ccc(O)c(C(=O)O)c2)C=CC1=O` [ATA, Aurintricarboxylic acid] was tested, and the “Survival (protection) of treated mice” value was 92% and 91.6% and the “Therapeutic effect versus solvent (log-rank test)” value was “Significant beneficial therapeutic effects”. With `Nc1nc2[nH]c(=O)cnc2c(=O)[nH]1` [Isoxanthopterin] the “Therapeutic effect versus solvent (log-rank test)” value was “did not exert beneficial therapeutic effects”. For `NC(CO)C(=O)NNCc1ccc(O)c(O)c1O` (stereo not drawn) [Benserazide, Benserazide hydrochloride], the “Therapeutic effect versus solvent (log-rank test)” value was “Significant beneficial therapeutic effects”. In the case of `C=CC1=C(C)c2cc3[nH]c(cc4nc(cc5[nH]c(cc1n2)c(C)c5CCC(=O)O)C(CCC(=O)O)=C4C)c(C)c3C=C` [PPIX, Protoporphyrin IX disodium], the “Therapeutic effect versus solvent (log-rank test)” value is reported as “Significant beneficial therapeutic effects”. `CO/N=C(\C(=O)N[C@@H]1C(=O)N2C(C(=O)O)=C(COC(C)=O)CS[C@H]12)c1csc(N)n1` [Cefotaxime sodium] was tested, and the “Therapeutic effect versus solvent (log-rank test)” value was “did not exert beneficial therapeutic effects”. For `NC(Cc1cc(O)c(O)cc1O)C(=O)O` (racemic) [6-OHD, 6-Hydroxy-DL-DOPA], the “Survival (protection) of treated mice” value was 33% and the “Therapeutic effect versus solvent (log-rank test)” value was “Significant beneficial therapeutic effects”.
